One data set can be described thus: method code SF-AS, from DOI: 10.1016/0006-2952(77)90261-1, PMID: 588293.
Conditions: not given
For `CCC1(CC(C)C(C)C)C(=O)NC(=O)NC1=O` (configuration not stated), the logP turned out to be 2.02.

Still in this data set, the particulars now being: pH 7.4.
In turn, `C=C(Br)CC1(C(C)C)C(=O)NC(=O)N(C)C1=O` (configuration not stated) returned a logD of 2.11.
The same measure, in the same setting: then `CCC1(C2=CC3CCC(C2)C3)C(=O)NC(=O)NC1=O` (configuration not stated), with 2.53.
On the same count and under the same terms, then `CCC1(C2=CCCCCC2)C(=O)NC(=O)NC1=O`, with 2.17.
The same measure, in the same setting: then `C=CCC1(C2C=CCC2)C(=O)NC(=O)NC1=O` (configuration not stated), with 1.51; and `CCC1(C2=CC3CCC(C2)C3)C(=O)NC(=O)N(C)C1=O` (configuration not stated), with 3.15.
With `CCCC1(CC)C(=O)NC(=O)NC1=O`, the log distribution coefficient (logD) was 0.66.
Same read-out and setting: then `C=C(Br)CC1(C(C)CC)C(=O)NC(=O)N(C)C1=O` (configuration not stated), with 2.43.
Same read-out and setting: then `CCC1(C2=CCCCC2)C(=O)NC(=O)NC1=O`, with 1.77.
Still for that read-out and setting: then `C=CCC1(CC(C)(C)C)C(=O)NC(=O)NC1=O`, with 1.71; and `CCCCCCCCC1(CC)C(=O)NC(=O)NC1=O`, with 3.08.
The molecule `C=C(Br)CC1(C(C)CC)C(=O)NC(=O)NC1=O` (configuration not stated) showed a logD of 1.72.
In turn, `C=CCC1(C(C)CCC)C(=O)NC(=O)NC1=O` (configuration not stated) returned a logD of 1.97.
Still for that read-out and setting: then `C=C(Br)CC1(C(C)CCC)C(=O)NC(=O)NC1=O` (configuration not stated), with 2.09.
Still for that read-out and setting: then `CCCCCCCC1(CC)C(=O)NC(=O)NC1=O`, with 2.91; and `CCC1(C2=CCCCC2)C(=O)NC(=O)N(C)C1=O` (configuration not stated), with 2.25; and `C=CCC1(C(C)C)C(=O)NC(=O)NC1=O`, with 1.22.
Still for that read-out and setting: then `C=C(Br)CC1(C(C)C)C(=O)NC(=O)NC1=O`, with 1.47.
The molecule `CCC1(C2=CCCCCC2)C(=O)NC(=O)N(C)C1=O` (configuration not stated) registered a logD of 2.82.
`C=CCC1(CC(=C)Br)C(=O)NC(=O)NC1=O`: the logD is 1.37.
On to `CCCCCCC1(CC)C(=O)NC(=O)NC1=O`, for which the logD came out at 2.46.
Same read-out and setting: then `C=CCC1(C2=CCCC2)C(=O)NC(=O)N(C)C1=O` (configuration not stated), with 1.89.

Broadly, the logP is a log measure of how a compound divides between an organic and an aqueous phase. A high value points to a more lipophilic compound. For orientation: logD means the decadic logarithm of the distribution of all forms, ionised or not, between an organic phase and buffer at a given pH.

For the origin of these results see the SangsterLogP compilation.
